{"source": "patent US20170368176A1", "about": "(priority 2014, published 2017)", "key": {"[1]": {"conditions": "in vivo; cited from earlier work"}, "rat cornea": {"test_system": "rat cornea", "set-up": "species or system Sprague-Dawley rats", "conditions": "in vivo"}, "peripheral nerve": {"test_system": "peripheral nerve", "conditions": "in vivo; cited from earlier work"}, "α2-AR": {"test_system": "α2-AR", "conditions": "cited from earlier work"}, "[2]": {"conditions": "in vivo; cited from earlier work", "remark": "listed apart in the source"}, "[3]": {"test_system": "human corneal limbal epithelial (HCLE) cells"}, "rats [4]": {"test_system": "rats", "conditions": "rat, in vivo"}, "rats [5]": {"test_system": "rats", "conditions": "rat, in vivo; cited from earlier work"}}, "note": "“And” between values parts separate entries of the source, which are not always exact repeats. Identical values can stand only once. “Also recorded” adds a separate entry of the source. Counter-ions that a name gives are not always drawn. Like-named read-outs stand apart in the source and are kept apart here.", "data": [{"molecule": "CC[N+](CC)(CC)CC(=O)Nc1c(C)cccc1C.[Br-]", "note": "[QX-314]", "values": [{"measurement": "duration of local anesthesia", "setting": "[1]", "value": "approximately 24 h"}]}, {"molecule": "CNC[C@H](O)c1cccc(O)c1", "note": "[phenylephrine]", "values": [{"measurement": "effect of the added agent on the duration of corneal block from TTX (in words)", "setting": "rat cornea", "value": "at low concentrations (but not high concentrations) prolonged the duration of corneal block from TTX; also recorded: greatly prolonged the duration of corneal block by TTX"}]}, {"molecule": "Clc1cccc(Cl)c1N=C1NCCN1", "note": "[CLON, clonidine hydrochloride]", "values": [{"measurement": "effective concentrations in peripheral nerve", "setting": "peripheral nerve", "value": 10, "unit": "µM"}, {"measurement": "effect of the added agent on the duration of corneal block from TTX (in words)", "setting": "rat cornea", "value": "failed to prolong corneal block"}, {"measurement": "selectivity for the α2-AR, times less selective than dexmedetomidine", "setting": "α2-AR", "value": 8, "unit": "times"}]}, {"molecule": "CCN(c1ccccc1)c1cc(NC)[n+](C)c(C)n1.[Cl-]", "note": "[ZD7288, 4-(N-Ethyl-N-phenylamino)-1,2 dimethyl-6-(methylamino) pyrimidinium chloride]", "values": [{"measurement": "effect of the added agent on the duration of corneal block from TTX (in words)", "setting": "rat cornea", "value": "prolongs the duration of corneal block from TTX"}]}, {"molecule": "CCCOc1ccc(C(=O)OCCN(CC)CC)cc1N", "note": "[PPC, Proparacaine hydrochloride]", "values": [{"measurement": "animals in which block0.5 occurred", "setting": "rat cornea", "value": "all animals"}, {"measurement": "Block0.5 (duration without blink response to 0.5 cm filament)", "setting": "rat cornea; hydrochloride", "value": "18 ± 6", "unit": "min"}, {"measurement": "Block2 (duration without blink response to 2 cm filament)", "setting": "rat cornea; hydrochloride", "value": "35 min and 35 ± 10 min"}, {"measurement": "Block<6 (duration without blink response to any filament less than 6 cm)", "setting": "rat cornea; hydrochloride", "value": "54 min and 54 ± 8 min"}]}, {"molecule": "COc1cc2nc(N3CCN(C(=O)c4ccco4)CC3)nc(N)c2cc1OC", "note": "[prazosin]", "values": [{"measurement": "effect of the added agent on the duration of corneal block from TTX (in words)", "setting": "rat cornea", "value": "did not shorten the duration of corneal block from TTX"}]}, {"molecule": "N=C1N[C@@H](O)[C@H]2[C@@H]3OC4(O)OC(C(O)[C@@]2(N1)[C@@H]4O)[C@]3(O)CO", "note": "(stereo partly drawn) [TTX, Tetrodotoxin]", "values": [{"measurement": "Block0.5 duration of corneal block", "setting": "rat cornea", "value": "12 ± 12.5", "unit": "min"}, {"measurement": "Block2 duration of corneal block", "setting": "rat cornea", "value": "39 ± 22.7", "unit": "min"}, {"measurement": "Block < 6 duration of corneal block", "setting": "rat cornea", "value": "117 ± 19.5", "unit": "min"}, {"measurement": "animals in which block0.5 of any duration occurred", "setting": "rat cornea", "value": "5 of 14"}, {"measurement": "block<6 durations compared with 15 mM proparacaine", "setting": "rat cornea", "value": "comparable to those from 15 mM proparacaine"}]}, {"molecule": "CNC[C@H](O)c1ccc(O)c(O)c1", "note": "[epinephrine]", "values": [{"measurement": "effect of the added agent on the duration of corneal block from TTX (in words)", "setting": "rat cornea", "value": "failed to prolong corneal block"}]}, {"molecule": "Cc1cccc([C@H](C)c2cnc[nH]2)c1C", "note": "[DMED, (S)-4-[1-(2,3-Dimethylphenyl)ethyl]-3H-imidazole]", "values": [{"measurement": "half-life", "setting": "[2]", "value": "approximately 2 hours"}, {"measurement": "effective concentrations in peripheral nerve", "setting": "peripheral nerve", "value": 2.7, "unit": "µM"}, {"measurement": "HCLE cell survival compared to cells not exposed to drug", "setting": "[3]", "value": "not reduced"}, {"measurement": "sedation, dose response of DMED (FIG. 4)", "setting": "rats [4]", "value": "sedation results from the higher two doses"}, {"measurement": "perineural doses that produce undesired sedation", "setting": "rats [5]", "value": "above 6 μg/kg"}, {"measurement": "Block0.5 (duration without blink response to 0.5 cm filament)", "setting": "rat cornea", "value": "0 ± 0", "unit": "min"}, {"measurement": "Block2 (duration without blink response to 2 cm filament)", "setting": "rat cornea", "value": "0 ± 0", "unit": "min"}, {"measurement": "Block<6 (duration without blink response to any filament less than 6 cm)", "setting": "rat cornea", "value": "0 ± 0", "unit": "min"}, {"measurement": "corneal anesthesia (in words)", "setting": "rat cornea", "value": "did not produce any degree of corneal anesthesia"}, {"measurement": "effect of increasing doses of DMED on block (FIG. 4)", "setting": "rat cornea", "value": "do not increase block further"}]}]}
